PubChem BioAssay (NCI)
Several values for one entry are separate records, joined by “and”; a condition that tells them apart may be missing. Equal values may be shown once.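 All cell lines were grown in 96-well plates and treated with compound for 48 hours. Here, GI50 denotes the concentration required for 50% inhibition of growth. TGI marks complete inhibition of growth.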

What was measured:
Assay in all cases: inhibition of tumour cell growth, NCI panel, 48 h
[1] = test system: COLO 205 colon
[2] = test system: KM12 colon
[3] = test system: RXF 393 renal
[4] = test system: HOP-62 NSCLC
[5] = test system: MOLT-4 leukemia
[6] = test system: NCI-H23 lung
[7] = test system: HCC-2998 colon
[8] = test system: MDA-MB-231 breast
[9] = test system: NCI/ADR-RES ovarian
[10] = test system: MCF7 breast

| Compound | TGI [1] | TGI [2] [µM] | TGI [3] [µM] | TGI [4] [µM] | TGI [5] [µM] | TGI [6] [µM] | TGI [7] | TGI [8] [µM] | TGI [9] [µM] | TGI [10] [µM] | GI50 [1] | GI50 [2] | GI50 [4] | GI50 [5] | GI50 [7] [µM] | GI50 [6] [µM] | GI50 [10] [µM] |
| --- | --- | --- | --- | --- | --- | --- | --- | --- | --- | --- | --- | --- | --- | --- | --- | --- | --- |
| O=[N+]([O-])c1ccc([N+]2=NC(c3ccccc3)=NN(c3ccccc3)C2)cc1 | > 100 µM | > 100 | > 100 | 47.9 | > 100 | > 100 | – | – | – | – | – | – | – | – | – | – | – |
| COc1cccc(-c2nccc3c(OCc4ccccc4)c(OC)c(OC)cc23)c1 | > 100 µM | > 100 | > 100 | > 100 | > 100 | > 100 | > 100 µM | – | – | – | – | – | – | – | – | – | – |
| N[C@H](CCC(=O)NCP(=O)(O)O)C(=O)O | > 100 µM | > 100 | – | > 100 | > 100 | > 100 | > 100 µM | > 100 | > 100 | > 100 | – | – | – | – | – | – | – |
| COc1ccc2c(c1)c1nn(CCN3CCCCC3)c3ccc4c(=O)n(CCN(C)C)c(=O)n2c4c13 | – | 0.0801 | < 0.0374 | 0.0384 | – | 0.627 | 0.03 µM | 0.126 | 1.91 | < 0.0504 | – | – | – | – | – | – | – |
| O=C(O)CNC(=O)c1ccc2cc(C(=O)N3CC(CCl)c4ccc([N+](=O)[O-])cc43)[nH]c2c1 (configuration not stated) | > 100 µM | > 100 | > 100 | – | > 100 | > 100 | – | > 100 | > 100 | > 100 | – | – | – | – | – | – | – |
| COC([C@@H](OC(=O)c1ccccc1)[C@H](OC(=O)c1ccccc1)C(O)COC(=O)c1ccccc1)n1cc(C)c(=O)[nH]c1=O (some centres not stated) | 51.9 µM | – | 43.1 | > 100 | 60.2 | > 100 | – | > 100 | > 100 | 52.3 | – | – | – | – | – | – | – |
| COc1ccc(N=C2C(=Nc3ccc(OC)cc3)N(c3ccc(N(C)C)cc3)C(=S)N2c2ccc(OC)cc2)cc1 | > 100 µM | > 100 | – | > 100 | > 100 | > 100 | > 100 µM | > 100 | > 100 | > 100 | – | – | – | – | – | – | – |
| CN(Cc1cnc2nc(N)nc(N)c2n1)c1ccc(C(=O)NC(CCC(=O)NC(CC(P(=O)(O)O)P(=O)(O)O)C(=O)O)C(=O)O)cc1 (configuration not stated) | > 100 µM | – | > 100 | > 100 | > 100 | > 100 | – | > 100 | > 100 | > 100 | – | – | – | – | – | – | – |
| Cc1c(-c2nnc(-c3ccccc3)o2)c(=O)n(-c2ccccc2)n1C | > 100 µM | > 100 | > 100 | > 100 | > 100 | > 100 | > 100 µM | – | – | – | – | – | – | – | – | – | – |
| O=C(CSc1nnc(-c2ccc(N=Cc3ccc(Cl)cc3)cc2)o1)Nc1ccc([N+](=O)[O-])cc1 | > 100 µM | – | 34.6 | > 100 | 36.7 | 38.1 | – | – | – | – | – | – | – | – | – | – | – |
| CC(=O)NC1(C(=O)N[C@@H](Cc2ccccc2)C(=O)NC2CCCCC2)Cc2ccc3ccccc3c2-c2c(ccc3ccccc23)C1 | 4.44 µM and 15.9 µM | > 100 | – | > 100 | – | – | > 100 µM and 89.5 µM | – | > 100 | > 100 | 2.2 µM and 5.01 µM | 2.89 µM and 6.88 µM | 12.2 µM and 57.3 µM | 1.91 µM and 4.43 µM | – | – | – |
| Cc1c2ccccc2c(C)n2c1nc1ccccc12 | – | 23.3 | 21.5 | 36 | > 100 | 30.7 | 22.7 µM | – | 39.5 | 13.3 | – | – | – | – | – | – | – |
| Nc1ccc2ccc(-c3ccc[nH]3)nc2n1 | > 100 µM | > 100 | > 100 | > 100 | – | > 100 | > 100 µM | > 100 | > 100 | > 100 | – | – | – | – | – | – | – |
| CCOC(=O)C(=O)CC(=O)C1=C(c2ccccc2OC)CC(c2cccs2)=CC1=O | > 100 µM | > 100 | > 100 | > 100 | > 100 | > 100 | – | > 100 | > 100 | – | – | – | – | – | – | – | – |
| CC12ON(P(=O)(c3ccccc3)c3ccccc3)C(C)(c3ccccc31)c1ccccc12 | > 100 µM | > 100 | > 100 | > 100 | > 100 | > 100 | > 100 µM | > 100 | > 100 | – | – | – | – | – | – | – | – |
| CC(=O)N(C(C)=O)n1c(Cc2ccc(C)cc2)nn(C(C)=O)c1=O | > 100 µM | > 100 | – | > 100 | > 100 | > 100 | > 100 µM | > 100 | > 100 | > 100 | – | – | – | – | – | – | – |
| CCCCn1c2ccccc2c2ccc3c(c21)C(=O)C=CC3=O | > 100 µM | > 100 | – | > 100 | > 100 | > 100 | > 100 µM | – | – | – | – | – | – | – | – | – | – |
| N=c1oc2ccccc2cc1-c1nc2ccccc2c(=O)[nH]1 | > 100 µM | > 100 | > 100 | 69.9 | > 100 | – | > 100 µM | > 100 | > 100 | > 100 | – | – | – | – | – | – | – |
| Clc1ccc(C2CC(c3cccc(Nc4ccncc4)c3)=NN2c2cc(Cl)cc(Cl)c2)cc1 (configuration not stated) | 4.62 µM | 3.38 | – | – | 5.01 | 3.34 | 3.04 µM | – | – | 4.73 | 2.14 µM | 1.79 µM | – | 2.17 µM | 1.56 | 1.71 | 2.05 |
| CN[C@@H](C)[C@@H](O)c1ccccc1 | > 100 µM | > 100 | – | > 100 | > 100 | > 100 | > 100 µM | > 10 | > 100 | > 100 | – | – | – | – | – | – | – |
| CNC(=S)NNc1ncnc2c1ncn2-c1ccc(C)cc1 | > 100 µM | > 100 | > 100 | > 100 | > 100 | > 100 | – | > 100 | > 100 | – | – | – | – | – | – | – | – |
| CC(C)(C)OC(=O)N1[C@@H]2Cc3ccc(N)cc3[C@@]1(C)c1ccccc12 | – | > 100 | 31.1 | > 100 | 48.5 | 60.4 | 47.2 µM | 75.3 | 51.1 | > 100 | – | – | – | – | – | – | – |
| COc1cc2c(cc1OC)[C@@](C)(C(O)C(O)C(C)(C)O)NCC2 (some centres not stated) | > 100 µM | – | > 100 | > 100 | > 100 | > 100 | – | > 100 | > 100 | > 100 | – | – | – | – | – | – | – |
| COP(=O)(O)C(N)Cc1c[nH]c2ccccc12 (configuration not stated) | > 100 µM | – | – | > 100 | > 100 | > 100 | > 100 µM | > 100 | > 100 | > 100 | – | – | – | – | – | – | – |
